Several values for one entry are separate records, joined by “and”; a condition that tells them apart may be missing. Equal entries are not always repeated.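 Test compounds were applied to cells in 96-well plates for 48 hours at 5 doses. GI50: concentration for 50% inhibition of growth. TGI: total growth inhibition.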 Some results are limits rather than exact numbers.

What all share (assay): NCI tumour cell line growth inhibition, 48 h
Test [1] deals with ACHN renal.
Test [2] deals with MALME-3M melanoma.
The test system of test [3] is SF-268 CNS.
The subject of test [4] is UACC-62 melanoma.
Test [5] relates to UACC-257 melanoma.
The subject of test [6] is SK-OV-3 ovarian.
Test [7] has as its system SR leukemia.
The subject of test [8] is RXF 393 renal.
Test [9] has as its system HCC-2998 colon.

As for `COC1C2C[C@@H](O)CCC2C(C(=O)OCCl)C[C@H]1O` (stereo partly specified), the TGI in test [1], in test [2], in test [3], in test [4], in test [5] and in test [6] was more than 100 µM in each case. For the same molecule, the TGI in [7], in test [8] and in test [9] was more than 100 µM each time.
For the molecule `COC1=C(N)C(=O)c2nc(-c3nc(C(=O)O)c(C)c(-c4ccc(OC)c(OC)c4O)c3N)ccc2C1=O`, the TGI in test [1] is 0.00376 µM and 0.0263 µM and < 0.01 µM; in test [3] it was 0.00904 µM and 0.0276 µM and < 0.01 µM; in [6] it was 0.0272 µM and 0.0174 µM; in [8], 15 nM [middle of 4 runs]. In addition, the GI50 in [3] is 0.00186 µM and 0.000781 µM and < 0.01 µM; in test [4] it was 0.00103 µM and 0.000879 µM and < 0.01 µM; in [5], 0.00321 µM and 0.0122 µM and 0.0224 µM; in [9], 0.00121 µM and 0.00468 µM.
In the case of `O=C1C(c2ccccc2)=C(c2ccccc2)C(c2ccc(Cc3ccc(C4=C(c5ccccc5)C(=O)C(c5ccccc5)=C4c4ccccc4)cc3)cc2)=C1c1ccccc1`, the TGI in test [2], in test [3], in test [4], in [5], in [6] and in [7] was more than 100 µM throughout. The TGI in test [8] is more than 100 µM.
Take `O=S1(=O)N2CN3CN(C2)CN1C3`: the TGI in test [1] is 283 µM; in test [2], 324 µM; in test [3] it was > 87.5 µM and 133 µM; in [4], 49.2 µM; in [5] it was 94.3 µM; in [6], 868 µM. In addition, the TGI in [9] was 571 µM. Moreover, the GI50 in [3] was 31.8 µM.
For the molecule `Nc1ccc2n[se]nc2c1`, the TGI in [1], in test [2], in [3], in test [4], in [5] and in test [6] was more than 100 µM each time. The TGI in test [7], in test [8] and in [9] was more than 100 µM each time.
As for `COC(=O)CCSC(=O)Nc1ccc(N=Nc2ccccc2)cc1`, the TGI in [1], in test [2], in [3], in test [4], in test [5] and in test [6] was more than 100 µM each time. The TGI in test [7] was more than 100 µM; in [8] it was more than 100 µM; in test [9], 59 µM.
For `NC(=O)c1ccc2c(c1)-c1nc-2nc2[n-]c(nc3nc(nc4[n-]c(n1)c1ccc(C(N)=O)cc41)-c1ccc(C(N)=O)cc1-3)c1ccc(C(N)=O)cc21.[Co+2]`, the GI50 in [1], in [2], in test [3], in [4], in [5] and in test [6] was more than 50 µM in each case. For the same molecule, the GI50 in [7] is 33.3 µM. The TGI in test [1], in test [2], in test [3], in test [4], in test [5] and in test [6] was more than 50 µM in each case. The molecule further yielded a TGI in test [7] of more than 50 µM.
In the case of `COC(=O)C(=O)Cc1nc2ccccc2s1`, the TGI in [1], in test [2], in test [3], in test [4], in test [5] and in test [6] was more than 100 µM each time. Also, the TGI in test [7], in test [8] and in [9] was more than 100 µM throughout.
For the molecule `NC1NC=NC2C1N=CN2C1OC(CO)C2[O][Sn][O]C21` (stereo unspecified), the GI50 in [1], in test [2], in [3], in test [4], in test [5] and in test [6] was more than 100 µM in each case. For the same molecule, the GI50 in [8] and in test [9] was more than 100 µM each time. The TGI in test [1], in test [2], in [3], in test [4], in test [5] and in test [6] was more than 100 µM throughout. In addition, the TGI in test [8] and in test [9] was more than 100 µM each time.
For `COc1cc[c]([Sn]([c]2ccc(OC)cc2)([c]2ccc(OC)cc2)[c]2ccc(OC)cc2)cc1`, the GI50 in test [1] is 17.4 µM; in [2], 3.31 µM; in test [3], 29.7 µM; in test [4], 17.9 µM; in [6], 96.5 µM; in test [9], 17.8 µM. The TGI in test [1] was 96.7 µM; in test [2], 8.43 µM; in test [3] it was more than 100 µM; in test [4] it was 69.3 µM; in [6], more than 100 µM; in [9] it was 50.5 µM.
On to `Cc1nc(N)nc(N)c1CCCCc1ccc(N)cc1`, for which the TGI turned out to be 59.2 µM in test [1]; 18.2 µM in [2]; 17.3 µM in [3]; 14.1 µM in [4]; 18.5 µM in test [5]; 16.6 µM in [6]. The TGI in test [7] came to 24.7 µM; in [9] it was 15.7 µM.
Turning to `CN(C)CCNC(=O)c1cccc2c1nc(-c1ccc(F)cc1)c1ccccc12`, the TGI in [1] worked out at 11.4 µM; in test [3], 21.8 µM; in [4] it was 14.8 µM; in test [5], 11.2 µM; in test [6], 21.1 µM; in [8], 12 µM. For the same molecule, in test [9], the TGI was found to be 16.7 µM.
Turning to `O=[N+]([O-])c1ccc(C2=Nc3ccccc3S(=O)C(c3ccccc3)C2)cc1` (stereo unspecified), the TGI in test [1] is 44.2 µM; in [2], more than 100 µM; in [3], more than 100 µM; in test [4], 29.9 µM; in [5], 55.3 µM; in test [6], 73.6 µM. Besides, the values for the TGI in [8] and in test [9] were 29 µM and 34.9 µM, respectively.
For the molecule `N#CCCn1[nH]c(=O)c(Cl)c(Cl)c1=O`, the TGI in [1] was found to be 30.7 µM; in test [2] it was 33 µM; in test [3], 32 µM; in [5], 37.7 µM; in test [7], 35.5 µM; in test [8], 32.2 µM. The molecule also registered a TGI in test [9] of 26 µM.

These data come from PubChem BioAssay (NCI).
